{
  "source": "PubChem BioAssay AID2060486",
  "about": "(Molecular Pharmacology Branch, DTP, NCI, 2025)",
  "test_system": "IGROV1 complex spheroids (HUVEC, MSC), viability % test/control",
  "assay": "Anticancer human tumor IGROV1 cell line growth inhibition [GQUAD];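 further: spheroids exposed to compounds for 7 days before readout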;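 on viability, T/C: 100% = DMSO vehicle control viability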",
  "settings": "for IC50: curve of first compound; for viability, T/C: stronger effect = lower value",
  "how_it_was_run": "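Multi-cell-type spheroids of tumor cells with HUVEC and mesenchymal stem cells, treated with drug combinations. Concentrations descend in half-log steps from near clinical Cmax, or from 10 microM where Cmax is unknown; viability read-out.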",
  "key": {"[1]": {"settings": "second compound 0.0316 µM, first compound 0.0316 µM"}, "[2]": {"settings": "second compound 0.0316 µM, first compound 0.1 µM"}, "[3]": {"settings": "second compound 0.0316 µM, first compound 0.316 µM"}, "[4]": {"settings": "second compound 0.0316 µM, first compound 1 µM"}, "[5]": {"settings": "second compound 0.0316 µM, first compound 3.16 µM"}, "[6]": {"settings": "second compound 0.0316 µM, first compound 10 µM"}, "[7]": {"settings": "second compound 0.1 µM, first compound 0.0316 µM"}, "[8]": {"settings": "second compound 0.1 µM, first compound 0.1 µM"}, "[9]": {"settings": "second compound 0.1 µM, first compound 0.316 µM"}, "[10]": {"settings": "second compound 0.1 µM, first compound 1 µM"}, "[11]": {"settings": "second compound 0.1 µM, first compound 3.16 µM"}, "[12]": {"settings": "second compound 0.1 µM, first compound 10 µM"}, "[13]": {"settings": "second compound 0.316 µM, first compound 0.0316 µM"}, "[14]": {"settings": "second compound 0.316 µM, first compound 0.1 µM"}, "[15]": {"settings": "second compound 0.316 µM, first compound 0.316 µM"}, "[16]": {"settings": "second compound 0.316 µM, first compound 1 µM"}, "[17]": {"settings": "second compound 0.316 µM, first compound 3.16 µM"}, "[18]": {"settings": "second compound 0.316 µM, first compound 10 µM"}, "[19]": {"settings": "second compound 1 µM, first compound 0.0316 µM"}, "[20]": {"settings": "second compound 1 µM, first compound 0.1 µM"}, "[21]": {"settings": "second compound 1 µM, first compound 0.316 µM"}, "[22]": {"settings": "second compound 1 µM, first compound 1 µM"}, "[23]": {"settings": "second compound 1 µM, first compound 3.16 µM"}, "[24]": {"settings": "second compound 1 µM, first compound 10 µM"}, "[25]": {"settings": "second compound 3.16 µM, first compound 0.0316 µM"}, "[26]": {"settings": "second compound 3.16 µM, first compound 0.1 µM"}, "[27]": {"settings": "second compound 3.16 µM, first compound 0.316 µM"}, "[28]": {"settings": "second compound 3.16 µM, first compound 1 µM"}, "[29]": {"settings": "second compound 3.16 µM, first compound 3.16 µM"}, "[30]": {"settings": "second compound 3.16 µM, first compound 10 µM"}, "[31]": {"settings": "second compound 10 µM, first compound 0.0316 µM"}, "[32]": {"settings": "second compound 10 µM, first compound 0.1 µM"}, "[33]": {"settings": "second compound 10 µM, first compound 0.316 µM"}, "[34]": {"settings": "second compound 10 µM, first compound 1 µM"}, "[35]": {"settings": "second compound 10 µM, first compound 3.16 µM"}, "[36]": {"settings": "second compound 10 µM, first compound 10 µM"}},
  "data": [
    {"smiles": "C=CCn1c(=O)c2cnc(Nc3ccc(N4CCN(C)CC4)cc3)nc2n1-c1cccc(C(C)(C)O)n1", "note": "+ Cc1cnc(CNC(=O)c2c(=O)c3ccc(N4CCCN(C)CC4)nc3n3c2sc2ccccc23)cn1", "values": [
      {"measurement": "IC50", "setting": "second compound 0.0316 µM", "result": 45.1, "unit": "nM"},
      {"measurement": "IC50", "setting": "second compound 0.1 µM", "result": "< 31.6", "unit": "nM"},
      {"measurement": "IC50", "setting": "second compound 0.316 µM", "result": "< 31.6", "unit": "nM"},
      {"measurement": "IC50", "setting": "second compound 1 µM", "result": "< 31.6", "unit": "nM"},
      {"measurement": "IC50", "setting": "second compound 3.16 µM", "result": "< 31.6", "unit": "nM"},
      {"measurement": "IC50", "setting": "second compound 10 µM", "result": "< 31.6", "unit": "nM"},
      {"measurement": "viability, T/C", "setting": "[1]", "result": 59, "unit": "%"},
      {"measurement": "viability, T/C", "setting": "[2]", "result": 29.8, "unit": "%"},
      {"measurement": "viability, T/C", "setting": "[3]", "result": 5.19, "unit": "%"},
      {"measurement": "viability, T/C", "setting": "[4]", "result": 2.29, "unit": "%"},
      {"measurement": "viability, T/C", "setting": "[5]", "result": 2.42, "unit": "%"},
      {"measurement": "viability, T/C", "setting": "[6]", "result": 1.97, "unit": "%"},
      {"measurement": "viability, T/C", "setting": "[7]", "result": 23.5, "unit": "%"},
      {"measurement": "viability, T/C", "setting": "[8]", "result": 18, "unit": "%"},
      {"measurement": "viability, T/C", "setting": "[9]", "result": 4.3, "unit": "%"},
      {"measurement": "viability, T/C", "setting": "[10]", "result": 2.46, "unit": "%"},
      {"measurement": "viability, T/C", "setting": "[11]", "result": 2.38, "unit": "%"},
      {"measurement": "viability, T/C", "setting": "[12]", "result": 2.57, "unit": "%"},
      {"measurement": "viability, T/C", "setting": "[13]", "result": 16.9, "unit": "%"},
      {"measurement": "viability, T/C", "setting": "[14]", "result": 9.27, "unit": "%"},
      {"measurement": "viability, T/C", "setting": "[15]", "result": 4.48, "unit": "%"},
      {"measurement": "viability, T/C", "setting": "[16]", "result": 2.42, "unit": "%"},
      {"measurement": "viability, T/C", "setting": "[17]", "result": 2.95, "unit": "%"},
      {"measurement": "viability, T/C", "setting": "[18]", "result": 2.48, "unit": "%"},
      {"measurement": "viability, T/C", "setting": "[19]", "result": 9.95, "unit": "%"},
      {"measurement": "viability, T/C", "setting": "[20]", "result": 9.65, "unit": "%"},
      {"measurement": "viability, T/C", "setting": "[21]", "result": 3.88, "unit": "%"},
      {"measurement": "viability, T/C", "setting": "[22]", "result": 3.14, "unit": "%"},
      {"measurement": "viability, T/C", "setting": "[23]", "result": 3.18, "unit": "%"},
      {"measurement": "viability, T/C", "setting": "[24]", "result": 3.24, "unit": "%"},
      {"measurement": "viability, T/C", "setting": "[25]", "result": 11.6, "unit": "%"},
      {"measurement": "viability, T/C", "setting": "[26]", "result": 7.96, "unit": "%"},
      {"measurement": "viability, T/C", "setting": "[27]", "result": 4.12, "unit": "%"},
      {"measurement": "viability, T/C", "setting": "[28]", "result": 3.52, "unit": "%"},
      {"measurement": "viability, T/C", "setting": "[29]", "result": 3.96, "unit": "%"},
      {"measurement": "viability, T/C", "setting": "[30]", "result": 3.47, "unit": "%"},
      {"measurement": "viability, T/C", "setting": "[31]", "result": 7.24, "unit": "%"},
      {"measurement": "viability, T/C", "setting": "[32]", "result": 6.29, "unit": "%"},
      {"measurement": "viability, T/C", "setting": "[33]", "result": 4.68, "unit": "%"},
      {"measurement": "viability, T/C", "setting": "[34]", "result": 3.1, "unit": "%"},
      {"measurement": "viability, T/C", "setting": "[35]", "result": 4.62, "unit": "%"},
      {"measurement": "viability, T/C", "setting": "[36]", "result": 2.93, "unit": "%"}
    ]},
    {"smiles": "CC(C)(O)C1CCC(Nc2ccc3ncc(-c4cccc(C(F)(F)F)c4)n3n2)CC1", "note": "(centres undefined) + Cc1cnc(CNC(=O)c2c(=O)c3ccc(N4CCCN(C)CC4)nc3n3c2sc2ccccc23)cn1", "values": [
      {"measurement": "IC50", "setting": "second compound 0.0316 µM", "result": 429, "unit": "nM"},
      {"measurement": "IC50", "setting": "second compound 0.1 µM", "result": "< 31.6", "unit": "nM"},
      {"measurement": "IC50", "setting": "second compound 0.316 µM", "result": "< 31.6", "unit": "nM"},
      {"measurement": "IC50", "setting": "second compound 1 µM", "result": "< 31.6", "unit": "nM"},
      {"measurement": "IC50", "setting": "second compound 3.16 µM", "result": "< 31.6", "unit": "nM"},
      {"measurement": "IC50", "setting": "second compound 10 µM", "result": "< 31.6", "unit": "nM"},
      {"measurement": "viability, T/C", "setting": "[1]", "result": 71.3, "unit": "%"},
      {"measurement": "viability, T/C", "setting": "[2]", "result": 68.4, "unit": "%"},
      {"measurement": "viability, T/C", "setting": "[3]", "result": 55.7, "unit": "%"},
      {"measurement": "viability, T/C", "setting": "[4]", "result": 34, "unit": "%"},
      {"measurement": "viability, T/C", "setting": "[5]", "result": 20.2, "unit": "%"},
      {"measurement": "viability, T/C", "setting": "[6]", "result": 16.9, "unit": "%"},
      {"measurement": "viability, T/C", "setting": "[7]", "result": 35.6, "unit": "%"},
      {"measurement": "viability, T/C", "setting": "[8]", "result": 32.7, "unit": "%"},
      {"measurement": "viability, T/C", "setting": "[9]", "result": 33.9, "unit": "%"},
      {"measurement": "viability, T/C", "setting": "[10]", "result": 26, "unit": "%"},
      {"measurement": "viability, T/C", "setting": "[11]", "result": 14.1, "unit": "%"},
      {"measurement": "viability, T/C", "setting": "[12]", "result": 10.2, "unit": "%"},
      {"measurement": "viability, T/C", "setting": "[13]", "result": 24.9, "unit": "%"},
      {"measurement": "viability, T/C", "setting": "[14]", "result": 25.8, "unit": "%"},
      {"measurement": "viability, T/C", "setting": "[15]", "result": 17.4, "unit": "%"},
      {"measurement": "viability, T/C", "setting": "[16]", "result": 20.5, "unit": "%"},
      {"measurement": "viability, T/C", "setting": "[17]", "result": 14.8, "unit": "%"},
      {"measurement": "viability, T/C", "setting": "[18]", "result": 11.4, "unit": "%"},
      {"measurement": "viability, T/C", "setting": "[19]", "result": 17, "unit": "%"},
      {"measurement": "viability, T/C", "setting": "[20]", "result": 17.6, "unit": "%"},
      {"measurement": "viability, T/C", "setting": "[21]", "result": 16.2, "unit": "%"},
      {"measurement": "viability, T/C", "setting": "[22]", "result": 16.5, "unit": "%"},
      {"measurement": "viability, T/C", "setting": "[23]", "result": 9.63, "unit": "%"},
      {"measurement": "viability, T/C", "setting": "[24]", "result": 7.48, "unit": "%"},
      {"measurement": "viability, T/C", "setting": "[25]", "result": 12.5, "unit": "%"},
      {"measurement": "viability, T/C", "setting": "[26]", "result": 9.36, "unit": "%"},
      {"measurement": "viability, T/C", "setting": "[27]", "result": 10.4, "unit": "%"},
      {"measurement": "viability, T/C", "setting": "[28]", "result": 10.4, "unit": "%"},
      {"measurement": "viability, T/C", "setting": "[29]", "result": 7.96, "unit": "%"},
      {"measurement": "viability, T/C", "setting": "[30]", "result": 1.27, "unit": "%"},
      {"measurement": "viability, T/C", "setting": "[31]", "result": 10, "unit": "%"},
      {"measurement": "viability, T/C", "setting": "[32]", "result": 9.42, "unit": "%"},
      {"measurement": "viability, T/C", "setting": "[33]", "result": 9.42, "unit": "%"},
      {"measurement": "viability, T/C", "setting": "[34]", "result": 5.73, "unit": "%"},
      {"measurement": "viability, T/C", "setting": "[35]", "result": 8.46, "unit": "%"},
      {"measurement": "viability, T/C", "setting": "[36]", "result": 0.12, "unit": "%"}
    ]}
  ]
}
